Common to all, as to test: MIC by micro-dilution (BSAC)
Holding throughout (format): cell-based

Assay [1] relates to Listeria monocytogenes.
The test system of assay [2] is S. epidermidis.
Assay [3] concerns MRSA (EMRSA 15).

In the case of “peptide NI01: antimicrobial peptide (bacteriocin, SEQ ID NO:3) obtained from a Staphylococcal culture; C terminal sequence QSFEWIYKQIKKLWA (MAAFMKLIQFLATKGQKYVSLAWKHKGTILKWINAGQSFEWIYKQIKKLWA; NOI01 polypeptide)”, the MIC in assay [1] was less than 0.125 µg/mL; in assay [2] (S. epidermidis RP62a), 2 to 4 µg/mL; in assay [2] (S. epidermidis s1), 1 µg/mL; in assay [2] (S. epidermidis s2) it was 4 µg/mL; in assay [2] (S. epidermidis s37) it was 2 µg/mL; in assay [2] (S. epidermidis s42) it was 2 µg/mL. In addition, the MIC was 4 µg/mL in assay [2] (S. epidermidis s44); 2 µg/mL in assay [2] (S. epidermidis s60); 2 µg/mL in assay [2] (S. epidermidis s93); 0.0625 µg/mL in assay [2] (S. epidermidis s156); 1 to 2 µg/mL in assay [3] (MRSA s37 (EMRSA 15)); 1 to 2 µg/mL in assay [3] (MRSA s41 (EMRSA 15)). In assay [3] (MRSA s71 (EMRSA 15)), this substance came in with an MIC of 2 µg/mL.

Usually MIC stands for the lowest concentration that inhibits growth of the organism.
